The NIST ThermoML archive (doi:10.1016/j.fluid.2014.05.033)
“And” between values parts separate entries of the source, which are not always exact repeats. Equal entries are not always repeated. ± gives the expanded uncertainty stated by the source.

What was measured:
[1] = for kinematic viscosity / mass density: 101.33 kPa, Liquid; for kinematic viscosity: Capillary tube (Ostwald / Ubbelohde) method; for mass density: Vibrating tube method; for Normal melting temperature: Crystal, visual observation
[2] = refractive index (Na D-line) (dimensionless); settings: 101.33 kPa, Liquid, Standard Abbe refractometry

SMILES | kinematic viscosity ([1]; 288.15 K) [m2/s] | mass density ([1]; 288.15 K) [kg/m3] | kinematic viscosity ([1]; 293.15 K) [m2/s] | mass density ([1]; 293.15 K) [kg/m3] | kinematic viscosity ([1]; 298.15 K) [m2/s] | mass density ([1]; 298.15 K) | kinematic viscosity ([1]; 303.15 K) [m2/s] | mass density ([1]; 303.15 K) [kg/m3] | kinematic viscosity ([1]; 308.15 K) [m2/s] | mass density ([1]; 308.15 K) [kg/m3] | kinematic viscosity ([1]; 313.15 K) [m2/s] | mass density ([1]; 313.15 K) [kg/m3] | kinematic viscosity ([1]; 318.15 K) [m2/s] | mass density ([1]; 318.15 K) [kg/m3] | Normal melting temperature [1] | refractive index ([2]; 288.15 K) | refractive index ([2]; 293.15 K) | refractive index ([2]; 298.15 K) | refractive index ([2]; 303.15 K) | refractive index ([2]; 308.15 K) | further results
CO [methanol] | 7.51e-07 ± 5e-09 | 796.5 ± 0.11 | 7.03e-07 ± 5e-09 | 791.46 ± 0.12 | 6.6e-07 ± 4e-09 | 786.59 ± 0.12 kg/m3 and 786.69 ± 0.12 kg/m3 | 6.21e-07 ± 4e-09 | 782.03 ± 0.12 | 5.79e-07 ± 4e-09 | 777.29 ± 0.12 | 5.49e-07 ± 4e-09 | 772.51 ± 0.12 | 5.19e-07 ± 4e-09 | 767.69 ± 0.12 | -98.00 ± 0.16 °C | 1.3306 ± 0.0004 | 1.3285 ± 0.0004 | 1.3265 ± 0.0004 | 1.3245 ± 0.0004 | 1.3227 ± 0.0004 | refractive index ([2]; 313.15 K): 1.3208 ± 0.0004; refractive index ([2]; 318.15 K): 1.3188 ± 0.0004
COc1ccccc1 [anisole] | 1.123e-06 ± 7e-09 | 996.56 ± 0.04 | 1.041e-06 ± 6e-09 | 991.95 ± 0.04 | 9.71e-07 ± 6e-09 | 989.42 ± 0.04 kg/m3 and 989.09 ± 0.04 kg/m3 | 8.99e-07 ± 6e-09 | 983.04 ± 0.05 | 8.39e-07 ± 5e-09 | 978.34 ± 0.05 | 7.89e-07 ± 5e-09 | 973.62 ± 0.05 | 7.4e-07 ± 5e-09 | 969.99 ± 0.05 |  | 1.5198 ± 0.0004 | 1.5169 ± 0.0004 | 1.5143 ± 0.0004 | 1.5117 ± 0.0004 | 1.5092 ± 0.0004 | refractive index ([2]; 313.15 K): 1.5063 ± 0.0004; refractive index ([2]; 318.15 K): 1.5041 ± 0.0004
COC(=O)OC [dimethyl carbonate] | 6.05e-07 ± 4e-09 | 1077.16 ± 0.07 | 5.7e-07 ± 4e-09 | 1070.18 ± 0.07 | 5.41e-07 ± 4e-09 | 1063.26 ± 0.06 kg/m3 | 5.08e-07 ± 4e-09 | 1056.23 ± 0.06 | 4.76e-07 ± 4e-09 | 1049.85 ± 0.06 | 4.56e-07 ± 4e-09 | 1043.04 ± 0.06 | 4.33e-07 ± 4e-09 | 1036.51 ± 0.05 | 5.01 ± 0.16 °C | 1.371 ± 0.0004 | 1.3688 ± 0.0004 | 1.3664 ± 0.0004 | 1.364 ± 0.0004 | 1.3618 ± 0.0004 | refractive index ([2]; 313.15 K): 1.3595 ± 0.0004; refractive index ([2]; 318.15 K): 1.357 ± 0.0004
Oc1ccccc1 [phenol] |  |  |  |  |  |  |  |  |  |  |  | 1058.51 ± 0.06 |  |  | 40.90 ± 0.16 °C |  |  |  |  |  | 
O=C(Oc1ccccc1)Oc1ccccc1 [diphenyl carbonate] |  |  |  |  |  |  |  |  |  |  |  |  |  |  | 80.81 ± 0.16 °C and 81.81 ± 0.16 °C |  |  |  |  |  | mass density ([1]; 358.15 K): 1113.12 ± 0.09 kg/m3
COC(=O)Oc1ccccc1 [methyl phenyl carbonate] | 5.143e-06 ± 2.8e-08 | 1153.93 ± 0.1 | 4.275e-06 ± 2.4e-08 | 1148.74 ± 0.1 | 3.665e-06 ± 2.1e-08 | 1143.24 ± 0.1 kg/m3 and 1143.63 ± 0.1 kg/m3 | 3.196e-06 ± 1.8e-08 | 1138.41 ± 0.1 | 2.816e-06 ± 1.6e-08 | 1133.26 ± 0.1 | 2.486e-06 ± 1.4e-08 | 1128.11 ± 0.09 | 2.235e-06 ± 1.3e-08 | 1122.97 ± 0.09 | -31.00 ± 0.16 °C | 1.4991 ± 0.0004 | 1.4965 ± 0.0004 | 1.4942 ± 0.0004 | 1.492 ± 0.0004 | 1.4896 ± 0.0004 | refractive index ([2]; 313.15 K): 1.4873 ± 0.0004; refractive index ([2]; 318.15 K): 1.4853 ± 0.0004
